Results on two molecules are retold here after patent US7033812B2, “β-secretase and modulation of β-secretase activity” (Scios Inc., priority 1999, dated 2006).

This test relates to neutral β-secretase activity. The experiment in a line: β-secretase ELISA (βNTF) with partially purified APP/β-secretase mixture, pH 7.0. The format is biochemical, human.

On to `NCCc1ccc(S(=O)(=O)F)cc1` [AEBSF], for which the β-secretase inhibition result (pH 7) is “dose-dependent β-secretase inhibition”.

As for cardiolipin, under “cardiolipin 0.01–100 μM in assay buffer, pH 7.0, 37° C. 16 hours, FIG. 4A”, the “detectable levels of β-secretase activity” value is on record as “dose-dependent increase”.
